Measured values: US20240325394A1, “SALT AND CRYSTAL FORM OF NITROGEN-CONTAINING HETEROCYCLIC DERIVATIVE, PREPARATION METHOD THEREFOR AND APPLICATION THEREOF” (SHANGHAI HANSOH BIOMEDICAL CO., LTD., priority 2020, published 2024)
Blank lines part the entries; values can stand above or below the compound they belong to.

Tests used:
human KRAS G12C protein = target: T1, human KRAS G12C protein (Homo sapiens, UniProt P01116, G12C); experiment: Thermal shift: melting temperature of KRAS G12C protein; type: binding; conditions: KRAS G12C protein 5.37 μM with compound 10 μM, 1 hour
T1 construct: purchased Beijing SinoBiological Co., Ltd. 12259-H07E2
Experimental: In this experiment, the thermal shift method was used to test the degree of change in the melting temperature (Tm) of the KRAS G12C protein before and after the binding of the compound, in order to characterize the ability of the compound to improve the stability of the KRAS G12C protein.
The specific experiment operation was as follows: • A solution containing […] (pH 7.5), 1 mM DTT, 5× SYPRO Orange and 150 mM NaCl was prepared as the experimental buffer, and a final concentration of 5.37 μM human KRAS G12C protein was added thereto. The reaction mixture was divided into 8 rows of PCR tubes, each 19.5 μL, and 0.5 μL of the test compound or DMSO were added respectively, so that the total reaction system was 20 μL, the final concentration of the compound was 10 μM, and 2.5% DMSO was set as the solvent control. After incubating at room temperature in the dark for 1 hour, the PCR tube was put into the PCR instrument, QuantStudio Software v1.3 was opened, and the melting temperature of KRAS G12C protein in different treatment groups was detected by melt curve function (heating from 25° C. to 95° C., 0.03° C./s).
The experimental data file of PCR instrument was imported into thermal shift software, and the melting temperature (Tm) of each treatment group was obtained, and the change value of melting temperature (ATm) was obtained by subtracting the Tm of DMSO solvent control group.

[1] = Plasma stability, human plasma; type: in vitro ADME; conditions: human
Experimental: (§1) Animal or human whole blood was collected, then the blood was put into a test tube containing anticoagulant, centrifuged at 3500 rpm for 10 min, and the upper layer of pale yellow plasma was collected. • 2) 10 μM of tested compound (m/M/V=C)
(§2) The compound was weighed, the stock solution was prepared with DMSO and the working solution was prepared with 100 mM phosphate buffer. • 3) 10 μM of positive control • (1) Propantheline (Propantheline Mr=449.4 Da)
(§3) • 1) 285 μL of plasma and 15 μL of 10 μM compound (tested compound) were added in turn in a 96-well plate, and incubated at 37° C. • 2) 40 μL was taken out at 0, 15, 30, 60, 90, 120 min, respectively, and 160 μL of acetonitrile termination solution containing internal standard was added. • 3) After centrifugation (3500 rpm, 10 min), 50 μL of supernatant was taken out, and then diluted with 50 μL DDH2O and injected to LC-MS/MS.
(§4) • instrument: Shimadzu LC-20 AD • chromatographic column: phenomenex Gemiu® C18 (50*4.6 mm, 5 μM particle size); • mobile phase: A: acetonitrile, B: 0.1% formic acid solution 0-8 min: 5% A→95% A, 2.0-2.1 min: 90% A→5% A; flow rate: 0.8 mL/min; running time: 5.0 min; injection volume: 5 μL.
(§5) • instrument: API4000 Liquid Chromatography-Mass Spectrometry, AB, USA; • the ion source was electrospray ionization source (ESI); • the temperature of dry gas (N2) was 500° C.; • electrospray voltage was 5500V; • the detection method was positive ion detection; • the scanning mode was selective response monitoring (MRM); • the scanning time was 0.1 s.

[2] = Plasma stability, mouse plasma; type: in vitro ADME; conditions: mouse
Experimental: as §1, §2, §3, §4, §5

[3] = Plasma stability, dog plasma; type: in vitro ADME; conditions: dog plasma, 37° C.
Experimental: as §1, §2, §3, §4, §5

[4] = Plasma stability, rat plasma; type: in vitro ADME; conditions: rat plasma, 37° C.
Experimental: as §1, §2, §3, §4, §5

- Tm (human KRAS G12C protein): 60.2 °C
SMILES: C=CC(=O)N1CCN(c2nc(=O)n(-c3c(SC)ccnc3C(C)C)c3nc(-c4c(N)ccc(Cl)c4F)c(Cl)cc23)[C@@H](C)C1 [Embodiment 9, 4-((S)-4-acryloyl-2-methylpiperazin-1-yl)-7-(6-amino-3-chloro-2-fluorophenyl)-6-chloro-1-(2-isopropyl-4-(methylthio)pyridin-3-yl)pyrido[2,3-d]pyrimidin-2(1H)-one]

SMILES: CC(C)[N+](C)(CCOC(=O)C1c2ccccc2Oc2ccccc21)C(C)C [Propantheline, reference compound]
- Residual rate (%) 0 min ([1]; 0 min, 0.5 μM): 100.00%
- Residual rate (%) 15 min ([1]; 15 min, 0.5 μM): 79.98%
- Residual rate (%) 30 min ([1]; 30 min, 0.5 μM): 50.52%
- Residual rate (%) 60 min ([1]; 60 min, 0.5 μM): 14.65%
- Residual rate (%) 120 min ([1]; 120 min, 0.5 μM): 0.72%
- half-life at 0.5 μM ([1]; plasma): 21 min
- Residual rate (%) 0 min ([2]; 0 min, 0.5 μM): 100.00%
- Residual rate (%) 15 min ([2]; 15 min, 0.5 μM): 79.79%
- Residual rate (%) 30 min ([2]; 30 min, 0.5 μM): 48.66%
- Residual rate (%) 60 min ([2]; 60 min, 0.5 μM): 23.39%
- Residual rate (%) 120 min ([2]; 120 min, 0.5 μM): 6.66%
- half-life at 0.5 μM ([2]; plasma): 27.7 min

SMILES: C=CC(=O)N1CCN(c2nc(=O)n(-c3c(SC)ccnc3C(C)C)c3nc(-c4c(O)cccc4F)c(F)cc23)[C@@H](C)C1 [Embodiment 1, 4-((S)-4-Acryloyl-2-methylpiperazin-1-yl)-6-fluoro-7-(2-fluoro-6-hydroxyphenyl)-1-(2-isopropyl-4-(methylthio)pyridin-3-yl)pyrido[2,3-d]pyrimidin-2(1H)-one]
- Tm (human KRAS G12C protein): 60.2 °C

- Tm (human KRAS G12C protein): 57.2 °C
SMILES: C=CC(=O)N1C[C@H](C)N(c2nc(=O)n(-c3c(SC)ccnc3C(C)C)c3nc(-c4c(O)cccc4F)c(F)cc23)C[C@H]1C [Embodiment 2, 4-((2S,5R)-4-acryloyl-2,5-dimethylpiperazin-1-yl)-6-fluoro-7-(2-fluoro-6-hydroxyphenyl)-1-(2-isopropyl-4-(methylthio)pyridin-3-yl)pyrido[2,3-d]pyrimidin-2(1H)-one]

SMILES: C=CC(=O)N1C[C@H](C)N(c2nc(=O)n(-c3c(SC)ccnc3C(C)C)c3nc(-c4c(N)ccc(Cl)c4F)c(Cl)cc23)C[C@H]1C [Embodiment 13, 4-((2S,5R)-4-acryloyl-2,5-dimethylpiperazin-1-yl)-7-(6-amino-3-chloro-2-fluorophenyl)-6-chloro-1-(2-isopropyl-4-(methylthio)pyridin-3-yl)pyrido[2,3-d]pyrimidin-2(1H)-one]
- Tm (human KRAS G12C protein): 58.0 °C

SMILES: CC[C@H](C)C(=O)O[C@H]1C[C@@H](C)C=C2C=C[C@H](C)[C@H](CC[C@@H]3C[C@@H](O)CC(=O)O3)[C@H]21 [Lovastatin, reference compound]
- t1/2 [3]: 80.22 min
- Residual rate (%) 0 min ([3]; 0 min): 100.00%
- Residual rate (%) 15 min ([3]; 15 min): 95.25%
- Residual rate (%) 30 min ([3]; 30 min): 95.45%
- Residual rate (%) 60 min ([3]; 60 min): 75.66%
- Residual rate (%) 120 min ([3]; 120 min): 36.25%
- t1/2 [4]: 6.69 min
- Residual rate (%) 0 min ([4]; 0 min): 100.00%
- Residual rate (%) 15 min ([4]; 15 min): 21.15%
- Residual rate (%) 30 min ([4]; 30 min): 1.77%
- Residual rate (%) 60 min ([4]; 60 min): 0.36%
- Residual rate (%) 120 min ([4]; 120 min): 0.30%

SMILES: C=CC(=O)N1CCN(c2nc(=O)n(-c3c(SC)ccnc3C(C)C)c3nc(-c4c(N)cccc4F)c(F)cc23)[C@@H](C)C1 [Embodiment 5, 4-((S)-4-acryloyl-2-methylpiperazin-1-yl)-7-(2-amino-6-fluorophenyl)-6-fluoro-1-(2-isopropyl-4-(methylthio)pyridin-3-yl)pyrido[2,3-d]pyrimidin-2(1H)-one]
- Tm (human KRAS G12C protein): 64.4 °C
